What all share (assay type): cell-based
Test [1] concerns constitutively active GluD1 and GluD2 receptor variants. The experiment in a line: Inhibition of constitutive currents of GluD variants by channel blockers, Xenopus oocytes. As to the method:
Xenopus laevis oocytes were prepared from ovaries purchased from Xenopus 1 (Dexter, MI) as previously described, [68] and incubated at 16°C in culture Barth’s solution (in mM) 88 NaCl, 2.4 NaHCO3, 1 KCl, 0.33 Ca(NO3)2, 0.41 CaCl2, 0.82 MgSO4, 10 HEPES, pH 7.4 with NaOH, supplemented with 1 U/ml penicillin and 1 μg/ml streptomycin. Oocytes were injected with approximately 5–40 ng RNA per oocyte and then incubated at 16–19°C for 1–3 days in culture Barth’s solution. The levels of GluD2-A654D and GluD2-A654T cRNA were reduced to 1.5 ng and 2.5 ng, respectively, due to oocyte toxicity. Two-electrode voltage clamp (TEVC) recordings were performed as previously described. Unless otherwise specified, extracellular solution contained (in mM) 90 NaCl, 3 KCl, 0.5 BaCl2, 0.01 EDTA, 10 HEPES, and was brought to pH 7.4 with NaOH. The oocytes were placed in a dual track recording chamber and gravity perfused with solution exchange controlled via a computer-driven 8-valve positioner (Digital MVP Valve). […] Recording electrodes were filled with 0.3 M KCl, and currents were recorded with membrane voltage held at −40 mV. To establish constitutive activity of recombinant receptors when compared to wild type receptors, we used the oocyte recording solution described above, but with 90 mM N-methyl-D-glucamine (NMDG) chloride replacing 90 mM NaCl. […] In addition to establishing constitutive activity, 90 mM NMDG was used in recording protocols with drug treatment to obtain the percent maximum theoretical inhibition of a compound, or to determine the relative degree of drug potentiation. For Ca^2+ concentration-response curves, choline chloride was used to maintain equimolar concentrations of Cl^− ions in the extracellular solution across the changing concentrations of calcium chloride. All compounds used in this study for concentration-response oocyte recordings were dissolved in deionized water as 50–100 mM stock solutions. In some rescue pharmacology experiments, we substituted 1 mM CaCl2 for 0.5 mM BaCl2 to evaluate Ca^2+-dependent control of receptor responses.

Test [2] addresses T1, GluD1-T649I (Homo sapiens, UniProt Q9ULK0, T649I).
T1 construct: expressed in transfected cells; host or cells: Xenopus laevis oocytes injected with cRNA
T1 sequence (Q9ULK0 21-1009 T649I): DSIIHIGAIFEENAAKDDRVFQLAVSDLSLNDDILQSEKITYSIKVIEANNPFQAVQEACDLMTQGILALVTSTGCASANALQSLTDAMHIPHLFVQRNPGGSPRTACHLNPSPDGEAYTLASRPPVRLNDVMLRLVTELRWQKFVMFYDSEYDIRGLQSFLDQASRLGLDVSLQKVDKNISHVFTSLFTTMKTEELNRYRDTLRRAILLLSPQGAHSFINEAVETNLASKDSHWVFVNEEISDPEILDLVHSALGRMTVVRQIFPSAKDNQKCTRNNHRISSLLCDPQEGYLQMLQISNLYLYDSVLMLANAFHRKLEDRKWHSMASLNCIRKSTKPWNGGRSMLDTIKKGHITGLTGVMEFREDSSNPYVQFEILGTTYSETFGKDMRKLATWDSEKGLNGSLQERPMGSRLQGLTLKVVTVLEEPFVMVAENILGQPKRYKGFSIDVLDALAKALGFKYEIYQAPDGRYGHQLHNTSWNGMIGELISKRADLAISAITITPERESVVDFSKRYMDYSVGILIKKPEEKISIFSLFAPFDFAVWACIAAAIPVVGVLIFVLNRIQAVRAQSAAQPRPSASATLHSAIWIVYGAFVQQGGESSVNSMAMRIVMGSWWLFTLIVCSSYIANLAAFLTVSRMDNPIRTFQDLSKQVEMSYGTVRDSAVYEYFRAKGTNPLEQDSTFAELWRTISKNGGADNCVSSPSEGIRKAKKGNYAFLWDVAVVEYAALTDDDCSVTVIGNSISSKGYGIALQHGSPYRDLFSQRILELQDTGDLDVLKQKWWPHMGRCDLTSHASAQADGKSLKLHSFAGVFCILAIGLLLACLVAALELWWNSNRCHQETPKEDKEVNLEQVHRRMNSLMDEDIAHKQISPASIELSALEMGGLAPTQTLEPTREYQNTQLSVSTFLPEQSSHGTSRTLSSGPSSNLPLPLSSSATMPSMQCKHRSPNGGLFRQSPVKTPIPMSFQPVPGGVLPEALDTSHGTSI
The experiment in a line: TEVC of constitutive current, Xenopus oocytes expressing GluD1-T649I. The following applies: positive = increase, negative = decrease of activity.

The target in test [3] is T2, GluD2-WT (Rattus norvegicus, UniProt Q63226).
T2 construct: expressed in transfected cells; host or cells: Xenopus laevis oocytes injected with cRNA
T2 sequence (Q63226 24-1007): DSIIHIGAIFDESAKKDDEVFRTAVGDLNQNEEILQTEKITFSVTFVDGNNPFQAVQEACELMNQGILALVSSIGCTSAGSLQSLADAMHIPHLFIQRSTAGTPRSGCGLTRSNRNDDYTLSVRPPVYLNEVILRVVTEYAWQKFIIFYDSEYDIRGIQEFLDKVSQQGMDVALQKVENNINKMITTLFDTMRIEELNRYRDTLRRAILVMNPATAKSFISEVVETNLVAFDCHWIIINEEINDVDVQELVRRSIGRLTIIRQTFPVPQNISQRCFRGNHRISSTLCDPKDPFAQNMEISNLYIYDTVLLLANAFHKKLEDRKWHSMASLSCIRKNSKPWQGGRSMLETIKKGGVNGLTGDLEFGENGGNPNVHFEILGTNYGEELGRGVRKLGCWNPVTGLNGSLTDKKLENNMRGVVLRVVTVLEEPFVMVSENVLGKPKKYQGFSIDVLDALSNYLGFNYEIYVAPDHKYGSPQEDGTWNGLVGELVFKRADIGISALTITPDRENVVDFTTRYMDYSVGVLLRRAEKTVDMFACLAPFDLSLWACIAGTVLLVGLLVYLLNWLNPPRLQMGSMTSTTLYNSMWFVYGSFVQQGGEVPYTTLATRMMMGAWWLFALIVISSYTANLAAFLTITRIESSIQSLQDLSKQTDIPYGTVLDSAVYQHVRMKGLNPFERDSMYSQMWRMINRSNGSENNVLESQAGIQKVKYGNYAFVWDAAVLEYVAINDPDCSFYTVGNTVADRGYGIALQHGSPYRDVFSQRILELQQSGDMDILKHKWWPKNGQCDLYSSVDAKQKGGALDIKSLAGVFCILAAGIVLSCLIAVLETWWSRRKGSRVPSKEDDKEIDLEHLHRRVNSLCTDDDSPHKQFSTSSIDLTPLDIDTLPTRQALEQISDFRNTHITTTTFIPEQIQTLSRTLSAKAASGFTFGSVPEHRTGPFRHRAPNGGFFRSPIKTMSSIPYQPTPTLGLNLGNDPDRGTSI
The experiment in a line: TEVC of constitutive current, Xenopus oocytes expressing GluD2-WT.

The source of these data is publication PMC10840383, “Clinical features, functional consequences, and rescue pharmacology of missense GRID1 and GRID2 human variants” (Human Molecular Genetics, 2023).

With `CC12CC3CC(C)(C1)CC(N)(C3)C2` [Memantine, memantine], the “Inhibition of constitutive currents, in words” value in test [1] is listed as “more effectively than ketamine”.
As to `N=C(N)c1ccc(OCCCCCOc2ccc(C(=N)N)cc2)cc1` [Pentamidine, pentamidine], the “Pentamidine effect (Baseline −100 μM Pentamidine)” value was −45 ± 9.5 (9) nA in test [2] (100 μM pentamidine) and 3.6 ± 4.8 (14) nA in test [3] (100 μM pentamidine, positive = increase, negative = decrease of activity). Moreover, in test [1], the “Inhibition of constitutive currents, in words” value is given as “inhibits”.
For `N[C@H](CO)C(=O)O` [D-serine], the “D-Serine effect (Baseline −10 mM D-Serine)” value is 8.9 ± 1.2 (9) nA in test [2] (10 mM D-serine) and −3.6 ± 1.0 (14) nA in test [3] (10 mM D-serine, positive = increase, negative = decrease of activity). Moreover, in test [3] (10 mM D-serine), the “Effect on difference current, in words” value is given as “minimal activity”.
